Measured values reported in a melting point compilation (Tetko et al.; mined from patent text by program, amines drawn as free bases though some values may be those of a salt).

Row | SMILES | melting point
1 | CCOc1ccc(C2SC(=N)NC2=O)c(OCC)c1 (centres undefined) | 179 to 181 °C
2 | CC1NC(=O)NN=C1c1ccc(Cl)c(N)c1 (centres undefined) | 226 to 228 °C
3 | COc1cc(CO)c([N+](=O)[O-])cc1OCCCC(=O)O | 172 to 175 °C
4 | CC(=O)Nc1cc(CN2CCCCC2)c(O)c2c1CCCC2 | 166 to 167 °C
5 | CC(C)(C)c1ccccc1N1CCN(C(=O)C2CCC(=O)N2CC(=O)O)CC1 (centres undefined) | 273 °C
6 | O=C(O)C(CCCCCCCCCCCC(C(=O)O)C1CC1)C1CC1 (centres undefined) | 115 to 118 °C
7 | O=c1[nH]c2cc(Cl)ccc2c(O)c1-c1ccc(Br)cc1 | > 350 °C
8 | CC(=O)c1cccc(NC(=S)N(C)N)c1 | 125 to 127 °C
9 | COC(=O)C(C(=O)OC)c1cccc2c1NC(=O)C2=O | 137 to 140 °C
10 | CCCCCCCCCCCC1=NCCN1CCCCO | 58 to 60 °C
11 | Cc1c(C=O)c2c(c(C)c1NC(=O)CC(C)(C)C)C(c1ccc(C(C)C)cc1)CS2 (centres undefined) | 134 to 140 °C
12 | Cc1ccc(-c2ncc3c(n2)CCCC3)nc1-c1ccc(C#N)cc1 | 178 to 182 °C
13 | O=C(O)C1=Cc2cc(I)ccc2OC1C(F)(F)F (centres undefined) | 168 to 170 °C
14 | CCN(CC)C(=O)CCC(=O)c1cccc(C)c1N | 104 °C
15 | COCC(=O)N(c1c(C)cccc1N)C(C)C(=O)OC (centres undefined) | 86 to 88 °C
16 | Nc1ccc(Cl)cc1C(=O)C(F)(F)Cl | 55 to 56 °C
17 | COC(=O)c1cc(N)nc(-c2ccc(Cl)c(OC)c2F)n1 | 188 to 190 °C
18 | COC(=O)Cn1nnnc1-c1c(Cl)c(Cl)cc2[nH]c(=O)c(=O)[nH]c12 | 281 to 283 °C
19 | NC(c1ccncc1)C1CCN(C2CCC(O)(CC(=O)O)CC2)CC1 (centres undefined) | 266 °C

Row | SMILES | melting point
20 | CN(C)C(=O)NC1CCCc2sccc21 (centres undefined) | 117 to 120 °C
21 | CC(=O)NC1CCC(CNc2nc3c(s2)CCOc2ccccc2-3)CC1 (centres undefined) | 69 to 72 °C
22 | COc1cc2[nH]c(=O)n(CCCS)c(=O)c2cc1OC | 236 °C
23 | COC(=O)c1cc(NC2CCOCC2)nc(Cl)n1 | 190 to 192 °C
24 | COc1ccccc1N1CCN(c2cc3nc(C(=O)O)c(=O)[nH]c3cc2[N+](=O)[O-])CC1 | 204 to 206 °C
25 | COc1ccc2cc(C=O)oc2c1 | 75 to 77 °C
26 | Cc1c(Cc2ccc(C(C)C)cc2)c2c(c(C)c1NC(=O)CC(C)(C)C)C(C)CO2 (centres undefined) | 185 to 186 °C
27 | CC1(C)OC(c2ccc(S(C)(=O)=O)cc2)=C(c2cccc([N+](=O)[O-])c2)C1=O | 158 to 159 °C
28 | CC1(C)CCc2c1ccc1c2CCc2cc(O)ccc2-1 | 152 to 153 °C
29 | O=C1CCCN1CCCC(=O)N1CCC(C2c3ncc(Br)cc3CCc3cc(Cl)cc(Br)c32)CC1 (single isomer, unassigned; (+)) | 127 to 128 °C
30 | COc1ccc(N)cc1C12CC3CC(CC(C3)C1)C2 | 140 to 141 °C
31 | CC1(C)N=C(c2ccccc2F)c2cc(N)ccc2-n2cnnc21 | 288 °C
32 | CS(=O)(=O)OCc1nc2ccc(F)cc2s1 | 68 to 72 °C
33 | O=C(Nc1cccc(S(=O)(=O)NC2CC2)c1)c1cnn2c(C(F)(F)F)cc(-c3ccc(Cl)c(Cl)c3)nc12 | 248 °C
34 | CC(C)c1cc(N)c(S(N)(=O)=O)cc1S(N)(=O)=O | 185 to 186 °C
35 | COc1ccc2c(c1)CCc1cn[nH]c1-2 | 162 to 164 °C
36 | Cn1ncc2nn(-c3cc(C(F)(F)F)ccc3F)c(=O)cc21 | 190 to 195 °C
37 | CCCCCCCCCCCCCCOCC(COCCCCCCCCCCCCCC)(CC(=O)O)CC(=O)O | 84 to 86 °C
38 | CCC(C)N(C)C(=O)c1cc(-c2ccc(C)c(C)c2)c2sccc2c1 (centres undefined) | 120 °C

Row | SMILES | melting point
39 | Cc1nc(C)c(Cl)c(NCc2nccc(SCCCSCCO)c2C)n1 | 134 to 137 °C
40 | COc1ccc(N2CCN(c3cccnn3)CC2)cc1 | 133 °C
41 | Nc1ccc(CP2(=O)OCCCO2)cc1 | 172 to 173 °C
42 | Oc1ccc2c(c1)Oc1cc(O)ccc1C2(C(F)(F)F)C(F)(F)F | 209 to 210 °C
43 | CCN1C(=O)Cc2cc3c(cc21)CCO3 | 106 to 107 °C
44 | O=c1oc(-c2ccc3c(c2)OCCO3)cc(O)c1C(CC1CC1)SC1CCCC1 (centres undefined) | 80 to 82 °C
45 | COc1ccc(O)c2c1C(C)(C)CCC2(C)C | 127 °C
46 | CCOC(=O)CNC(=O)n1nc(Oc2c(Cl)cc(C(F)(F)F)cc2Cl)cc1C | 50 to 53 °C
47 | COc1cccc2c1CC(CC=O)C2=O (racemic) | 71 °C
48 | O=C(CCl)Nc1cc(C(=O)NC(CO)CO)cc(C(=O)NC(CO)CO)c1 | 222 to 224 °C
49 | COc1ccc(C2(CC(=O)O)CNC(=O)C2)cc1 (centres undefined) | 172 to 175 °C
50 | Cc1cc(-c2ccc(O)cc2)ccc1C=O | 161 to 162 °C
51 | CN(C)c1snc(OCC#CI)c1C#N | 171 to 172 °C
52 | CCCNC(=O)Nc1ccc2c(c1)NC(=O)C2(C)C | 223 to 225 °C
53 | C#Cc1cn(C2CC(O)C(CO)O2)c(=O)nc1N (centres undefined) | 162 to 165 °C
54 | O=c1cc(O)c2ccc(F)cc2o1 | 229 to 230 °C
55 | CC(C)Oc1ccc(C(=O)O)c(C(=O)O)c1 | 116 to 118 °C
56 | Cc1[nH]c(=O)c(C#N)cc1-c1ccc2ncc(Cl)n2c1 | > 300 °C

Continued, values first:

Row | melting point | SMILES
57 | 225 to 227 °C | Cc1oc2c(C)c(C)c(NC(=O)c3ccccc3)c(C)c2c1-c1ccc(C(C)C)cc1
58 | 198 °C | COc1ccccc1CNc1ccc2cc(Nc3nnc(C(F)(F)F)o3)ccc2n1
59 | 68 to 69 °C | CO/C=C(/C(=O)OC)c1ccccc1Br
60 | 237 to 247 °C | O=C(O)c1cc2c(c(-c3ccccc3)c1)C(=O)OC2=S
61 | 147 to 148 °C | CCOC(=O)N[C@@H]1CCc2c(ccc(OCc3ccccc3)c2C(=O)OC)[C@H]1O (relative stereo)
62 | 190 to 192 °C | CC1(C)CC(=O)c2c(SCc3ccccc3)cn(-c3ccccn3)c2C1
63 | 157 to 159 °C | Nc1cccc2c(-c3ccc(=O)[nH]n3)c(-c3ccccc3)nn12
64 | 98.5 to 100 °C | Cc1[nH]cnc1CSCCN=C(NCCCc1c[nH]cn1)NC(=O)c1ccccc1
65 | 88 to 89 °C | O=[N+]([O-])c1ccc2ccccc2c1NCC12CCCN1CCC2
66 | 300 °C | O=C(NN=Cc1ccc([N+](=O)[O-])o1)c1ncn2ccccc12
67 | 259 to 263 °C | O=C(Nc1ccc(C(F)(F)F)cc1)Nc1ccc2ncccc2c1
68 | 108 to 109 °C | CC[C@@H](c1ccccc1)N(Cc1ccc(C(=O)O)cc1)S(=O)(=O)c1ccc(F)c(F)c1
69 | 141 to 148 °C | O=C(Cc1ccc(F)cc1)Nc1ccc(-n2nc(C3CC3)cc2C2CC2)cc1
70 | 90 to 93 °C | c1ccc(CN2C(=NCCCn3ccnc3)c3cccc4cccc2c34)cc1
71 | 190 to 191 °C | CCc1nc(CCc2ccc(NC(=O)/C=C/c3cnn(C)c3-c3ccc(F)cc3)cc2)cs1
72 | 140 to 142 °C | O=S1N=C(NCCCN(Cc2ccccc2)c2ccccn2)C(NCc2ccncc2)=N1 (centres undefined)
73 | 176 to 178 °C | O=c1n(CCCN2CCC(n3c(=O)[nH]c4ccccc43)CC2)nc2n1-c1ccccc1OC2
74 | 92 to 93 °C | CC(C)(OCc1nn(Cc2ccccc2)c2ccccc12)C(=O)NN
75 | 77 to 78 °C | CN(C)c1ccc(C2CCc3ccccc3O2)cc1 (centres undefined)
76 | 157 to 158 °C | Cc1sc(-c2ccccc2)nc1CCOc1ccc(C[C@@H](C(=O)O)n2cccc2)cc1
77 | 144 to 146 °C | O=C1C(Cl)=C(c2ccccc2)C(=O)N1Nc1ccccc1
78 | 122 to 124 °C | COC(=O)c1cccc2c1Nc1ccc(I)cc1C2
79 | 60 to 62 °C | CCCCOC(=O)CNC(=O)c1ncccc1OC
80 | 68 °C | CCOC(Cn1nc(CC(=O)OC)c2ccccc2c1=O)OCC

Row | melting point | SMILES
81 | 175 to 177 °C | c1ccc(CSc2nc3cnccc3[nH]2)cc1
82 | 65 °C | CCOCc1nc(C(C)(C)O)c(C(=O)OCOC(=O)C(C)(C)C)n1Cc1ccc(-c2ccccc2C(=O)O)cc1
83 | 205 to 206 °C | CN1C=C(C(=O)O)C(=O)CC1c1ccc(Cl)cc1 (centres undefined)
84 | 145 to 147 °C | CC(C)(C)OC(=O)Nc1ccc(-c2ccc(OC(F)(F)F)cc2)cc1[N+](=O)[O-]
85 | 80 °C | O=C1CC(c2ccccc2)c2cccc(O)c21 (centres undefined)
86 | 210 to 212 °C | Cc1c(C)c2c(c(C)c1NC(=O)CC(C)(C)C)C(c1ccccn1)C(C)(C)O2 (centres undefined)
87 | 268 to 270 °C | CCn1nc2c(N)nc3ccccc3c2c1CC1(O)CCN(S(C)(=O)=O)CC1
88 | 254 °C | O=C1CCN2C(=O)c3cccc(NC(=O)Nc4ccccn4)c3C2C1 (centres undefined)
89 | 198 °C | CCOC(=O)COc1ccc(-c2nc3ncccc3[nH]2)c(O)c1
90 | 73 to 75 °C | CCOC(=O)C1=C(C)NC(CSCCc2ccccc2)=C(C(=O)OCC)C1c1cccc([N+](=O)[O-])c1 (centres undefined)
91 | 158 °C | Clc1ccc(N2CC(c3ccccc3)=C(c3ccccc3)C2)cc1
92 | 200 to 201 °C | CC1(C)CCCC(C)(C)N1Cc1ccc2cc(NC(=O)c3ccc(-c4ccccc4)cc3)ccc2n1
93 | 252 to 253 °C | N=C(N)NNC1=NS(=O)(=O)c2ccccc21
94 | 182 to 185 °C | CC(c1ccnc(N)c1)C(O)(Cn1cncn1)c1ccc(F)cc1F (centres undefined)
95 | 207 to 209 °C | Cc1nc2c(N)nc3ccccc3c2n1CCOCCNC(=O)NC1CCCCC1
96 | 116 °C | CCOC(=O)c1nccn1C1Cc2ccccc2C1=O (centres undefined)
97 | 125 to 127 °C | C1=CC2=Nc3ccccc3OCN2C=C1
98 | 295 to 297 °C | Cc1c(C(=O)O)oc2cc(-c3ccc(Cn4c(C)nc5ccccc54)cc3)ccc12
99 | 99 °C | CCCCCCCCCCCCOc1ccc(-c2ccc(CCCCC(=O)OCC)cc2)cc1
100 | 140 to 141 °C | CCOC(=O)CC(=O)c1cc(F)c(S(=O)(=O)c2ccccc2)nc1Nc1ccc(F)cc1F
101 | 212 to 214 °C | COc1ccc(CNn2c(=O)ccc3cnc(S(C)(=O)=O)nc32)cc1Cl
102 | 92.2 to 95 °C | CC(=O)Nc1ccc(Oc2ccc3nc(COc4ccc(CC5SC(=O)NC5=O)cc4)n(C)c3c2)cc1 (centres undefined)
103 | 194 to 195 °C | COc1cc(COc2cc(/C=C/C(=O)O)n(-c3ccccc3)n2)ccc1OCc1nc(-c2ccccc2)oc1C
104 | 95 to 96 °C | CCCCCCCNC(=S)N(C)c1cccc(-c2ccc(CCC(=O)O)cc2)c1
